This passage reports Kd results from article doi:10.1101/2022.11.01.514793v1 (biorxiv, 2022).

pKd: −log10 of the molar value.

The target of this assay is T1, AdgB (Variovorax paradoxus, UniProt T1X8R6).
T1 sequence (T1X8R6 28-388 limits assumed): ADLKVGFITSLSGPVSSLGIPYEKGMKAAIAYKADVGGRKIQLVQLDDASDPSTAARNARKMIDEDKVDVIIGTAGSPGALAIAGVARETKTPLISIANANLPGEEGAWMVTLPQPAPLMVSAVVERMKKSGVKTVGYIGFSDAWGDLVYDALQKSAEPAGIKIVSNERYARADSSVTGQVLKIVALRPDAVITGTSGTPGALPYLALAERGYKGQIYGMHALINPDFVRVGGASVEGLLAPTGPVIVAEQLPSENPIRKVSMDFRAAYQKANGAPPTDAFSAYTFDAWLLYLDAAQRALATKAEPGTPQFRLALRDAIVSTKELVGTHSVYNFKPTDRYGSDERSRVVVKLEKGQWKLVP
As to the kind of experiment: isothermal titration calorimetry. The assay is classed as binding. (Isothermal titration calorimetry measures the heat released or taken up as one component is titrated into another.)
As for `O=C(O)Cc1c[nH]c2cccc(Cl)c12` [4-Cl-IAA], the pKd (commonly −log10 of the Kd, conventionally taken in molar units) is 5.08.
Consider `O=C(O)CCc1c[nH]c2ccccc12` [IPA], for which the pKd is 5.80.
Next, `O=C(O)Cc1cccc2ccccc12` [NAA]: 4.70.
Next, `O=C(O)CCCc1c[nH]c2ccccc12` [IBA]: 4.60.
